SMILES strings stand for the structures. Where two headings read alike, the source gives them in different places.

For this experiment, the target named is T1, mUSP18 (Mus musculus, UniProt Q9WTV6).
T1 construct: (46-368); His-tag (N); made in house
T1 sequence (Q9WTV6 46-368): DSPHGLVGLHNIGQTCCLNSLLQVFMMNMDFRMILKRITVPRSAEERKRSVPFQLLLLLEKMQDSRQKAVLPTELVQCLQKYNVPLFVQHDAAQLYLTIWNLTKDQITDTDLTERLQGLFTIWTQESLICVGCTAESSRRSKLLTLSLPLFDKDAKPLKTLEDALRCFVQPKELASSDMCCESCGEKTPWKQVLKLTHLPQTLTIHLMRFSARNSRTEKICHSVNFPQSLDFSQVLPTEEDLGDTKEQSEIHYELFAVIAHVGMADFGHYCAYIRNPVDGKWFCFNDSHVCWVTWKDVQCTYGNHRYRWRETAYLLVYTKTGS
The experiment can be described thus: High-throughput screening, ISG15ct-RhoMP, single dose 1.25 µM. The settings on record: for inhibition at 1.25 µM: mUSP18 %inhibition; for inhibition of mUSP18 by individual CA's and coupling reagents: screened with and without DIC/HOBt. Type of experiment: biochemical, murine.

Setting [1] is: carboxylic acid (CA) building block alone, read-out: %inh CA only.
Setting [2] is: carboxylic acid (CA) with coupling reagents DIC/HOBT, read-out: %inh CA + DIC/HOBT.

For `O=C(O)c1cc(-n2cccc2)ccn1` [CA362], the inhibition at 1.25 µM is, setting by setting: under setting [1], 6.21%; under setting [2], 0.7%.
Take `O=C(O)c1ccc(Cn2ccnn2)o1` [CA363]: the inhibition at 1.25 µM by setting is: under setting [1], 4.39%; under setting [2], -0.81%.
For `Cc1onc(C(=O)O)c1CN1CCOCC1` [CA364], the inhibition at 1.25 µM turned out to be 5.31% under setting [1] and 1.01% under setting [2].
As for `O=C(O)C1CCN(S(=O)(=O)N2CCCCC2)CC1` [CA365], the inhibition at 1.25 µM under setting [1] is -1.04% and the inhibition at 1.25 µM under setting [2] turned out to be 2.17%.
With `CC1(C(=O)O)CCCCN1C(=O)OCc1ccccc1` (stereo not shown) [CA366], the inhibition at 1.25 µM is, setting by setting: under setting [1], 0.85%; under setting [2], 3.29%.
Take `O=C(O)c1sccc1S(=O)(=O)NC1CCCCCC1` [CA367]: the inhibition at 1.25 µM by setting is: under setting [1], 1.29%; under setting [2], 5.26%.
For `CCn1nccc1-c1cc(C(=O)O)no1` [CA368], the inhibition at 1.25 µM was 0.71% under setting [1] and 2.58% under setting [2].
On the same counts, the results for `O=C(O)c1cccc(C(=O)N2CCCC2)n1` [CA369] are 0.72% and 1.39%.
On to `O=C(O)[1C@@H]1CCCO[1C@H]1c1ccccc1` [CA370], for which the inhibition at 1.25 µM worked out at 2.12% under setting [1] and 9.77% under setting [2].
For the molecule `O=C(O)C1CCCN(S(=O)(=O)c2cccs2)C1` (stereo not shown) [CA371], the inhibition at 1.25 µM under setting [1] is 1.66% and the inhibition at 1.25 µM under setting [2] was 2.42%.
As for `O=C(O)c1ccc(Cn2cc(Cl)c(C(F)(F)F)n2)o1` [CA372], the inhibition at 1.25 µM under setting [1] turned out to be 5.98% and the inhibition at 1.25 µM under setting [2] came out at 8.2%.
As to `COc1ccc(C(=O)O)cc1S(=O)(=O)N(C)CCc1cccnc1` [CA373], the inhibition at 1.25 µM reads like this: under setting [1], 0.43%; under setting [2], 4.83%.
Regarding `O=C(O)CC1CCN(c2ccc(C(F)(F)F)cn2)CC1` [CA374], the inhibition at 1.25 µM reads like this: under setting [1], 0.78%; under setting [2], 1.18%.
In the same order, the values of `O=C(O)c1cccnc1-n1cncn1` [CA375] are -1.76% and 7.93%.
Regarding `CCc1ccc(C(=O)N2CCC(C(=O)O)CC2)o1` [CA376], the inhibition at 1.25 µM was 6.04% under setting [1] and -8.39% under setting [2].
For `O=C(O)c1cnn(-c2ccccc2)n1` [CA377], the inhibition at 1.25 µM by setting is: under setting [1], 2.74%; under setting [2], -10.8%.
As to `Cc1nc(-c2ccsc2)ccc1C(=O)O` [CA378], the inhibition at 1.25 µM is, setting by setting: under setting [1], 1.59%; under setting [2], -10.4%.
For the molecule `CN(C)S(=O)(=O)c1ccc(N2CCCCC2)c(C(=O)O)c1` [CA379], the inhibition at 1.25 µM was -2.55% under setting [1] and -9.97% under setting [2].
For the molecule `O=C(O)c1cnc(Cc2ccc(F)cc2)s1` [CA380], the inhibition at 1.25 µM is -5.77% under setting [1] and -9.23% under setting [2].
Regarding `Cc1cc(C)cc(N(CCC(=O)O)S(=O)(=O)c2ccc(Cl)cc2)c1` [CA381], the inhibition at 1.25 µM by setting is: under setting [1], 1.09%; under setting [2], -13.7%.
Regarding `O=C(O)c1csc(CCc2ccccc2)n1` [CA382], the inhibition at 1.25 µM was -3.25% under setting [1] and -8.03% under setting [2].
On to `O=C(O)c1ccc(-c2nnco2)cc1` [CA383], for which the inhibition at 1.25 µM reads like this: under setting [1], -4.57%; under setting [2], -8.55%.
For `O=C(O)c1ccccc1Cn1cncn1` [CA384], the inhibition at 1.25 µM under setting [1] was -2.51% and the inhibition at 1.25 µM under setting [2] was -6.89%.
In the same order, the values of `O=C(O)Cc1cnn(Cc2ccccc2)c1` [CA385] are -2.43% and -10.4%.
`CN(CC1CC1)c1ccc(C(F)(F)F)cc1C(=O)O` [CA386]: the inhibition at 1.25 µM is -2.54% under setting [1] and -7.62% under setting [2].
Take `CNS(=O)(=O)c1ccc(-c2ccc(Cl)c(Cl)c2)c(C(=O)O)c1` [CA387]: the inhibition at 1.25 µM under setting [1] was -2.91% and the inhibition at 1.25 µM under setting [2] was -4.58%.
On the same counts, the results for `O=C(O)Cc1csc(N2CCCC2=O)n1` [CA388] are -10.4% and -3.35%.
For the molecule `CC1CN(S(=O)(=O)c2ccc(C(=O)O)cc2)CC(C)O1` (stereo not shown) [CA389], the inhibition at 1.25 µM was -6.73% under setting [1] and -5.95% under setting [2].
On the same counts, the results for `Cc1ncsc1C(=O)N(C)c1ccccc1C(=O)O` [CA390] are -7.59% and -4.7%.
As to `O=C(O)Cc1ccc(-n2cccc2)cc1` [CA391], the “inhibition of mUSP18 by individual CA's and coupling reagents” value was “could inhibit mUSP18”. Besides, under setting [1], the inhibition at 1.25 µM is -10.9%. The inhibition at 1.25 µM under setting [2] is 63.9%.
On the same counts, the results for `O=C(O)c1sccc1-n1cccc1` [CA392] are “could inhibit mUSP18”, 71.2% and 56.5%.
Turning to `O=C(O)c1coc(C#Cc2ccccc2)c1` [CA393], the inhibition at 1.25 µM reads like this: under setting [1], -1.56%; under setting [2], -1.99%.
For `O=C(O)c1cccc(Oc2ccc(Cl)cc2)n1` [CA394], the inhibition at 1.25 µM runs as follows: under setting [1], -5.76%; under setting [2], -1.48%.
As for `O=C(O)c1cccnc1Oc1ccccc1Br` [CA395], the inhibition at 1.25 µM was -7.15% under setting [1] and -4.5% under setting [2].
On the same counts, the results for `O=C(O)c1cnn(-c2ccc(C(F)(F)F)cc2)c1` [CA396] are -5.61% and 1.41%.
On the same counts, the results for `Cc1c[nH]c(=O)n1-c1cccc(C(=O)O)c1` [CA397] are -10.2% and -2.23%.
As to `Cc1ccc(Oc2ccc(C(=O)O)nc2)cc1` [CA398], the inhibition at 1.25 µM reads like this: under setting [1], -2.93%; under setting [2], 2.57%.
On to `O=C(O)c1ccc(OCc2cccnc2)cc1` [CA399], for which the inhibition at 1.25 µM is -10.1% under setting [1] and -0.24% under setting [2].
On the same counts, the results for `CCn1cc([1C@@H]2OCCC[1C@H]2C(=O)O)cn1` [CA400] are 8.86% and 4.12%.
On the same counts, the results for `O=C(O)c1ccc(C#Cc2ccccc2)cc1` [CA401] are 8.14% and -4.27%.
Consider `O=C(O)C1CCN1C1CCCC1` (stereo not shown) [CA402], for which the inhibition at 1.25 µM runs as follows: under setting [1], 0.37%; under setting [2], -9.76%.
Turning to `O=C(O)c1cc(S(=O)(=O)Nc2nccs2)ccc1F` [CA403], the inhibition at 1.25 µM under setting [1] turned out to be 0.9% and the inhibition at 1.25 µM under setting [2] is -6.97%.
As for `O=C(O)C1CCCN1C(=O)C1CC1` (stereo not shown) [CA404], the inhibition at 1.25 µM by setting is: under setting [1], -4.12%; under setting [2], -12.2%.
On the same counts, the results for `O=C(O)C(OC1CCOCC1)c1ccccc1` (stereo not shown) [CA405] are -0.68% and -7.73%.
As for `O=C(O)CCn1ccc(C(=O)N2CCCC2)n1` [CA406], the inhibition at 1.25 µM is, setting by setting: under setting [1], -2.83%; under setting [2], -11.1%.
On the same counts, the results for `O=C(O)c1ccccc1OCc1cccs1` [CA407] are -5.56% and 33.9%.
Regarding `O=C(O)c1c[nH]nc1-c1ccncc1` [CA408], the inhibition at 1.25 µM is -2.77% under setting [1] and -3.75% under setting [2].
Take `COc1ccccc1N1CC(C(=O)O)CCC1=O` (stereo not shown) [CA409]: the inhibition at 1.25 µM under setting [1] was -0.2% and the inhibition at 1.25 µM under setting [2] was -6.22%.
As to `Cn1nccc1[1C@@H]1C[1C@H]1C(=O)O` [CA410], the inhibition at 1.25 µM runs as follows: under setting [1], -4.36%; under setting [2], -9.17%.
Consider `O=C(O)C1CCCN(c2ncccn2)C1` (stereo not shown) [CA411], for which the inhibition at 1.25 µM was -4.05% under setting [1] and -6.74% under setting [2].
On to `O=C(O)c1ccc(-c2ccncc2)[nH]c1=O` [CA412], for which the inhibition at 1.25 µM by setting is: under setting [1], -8.86%; under setting [2], -7.67%.
On the same counts, the results for `Cc1onc(C(=O)O)c1CN1CCN(C)CC1` [CA413] are -6.3% and -3.44%.
In the same order, the values of `O=C(O)c1cccn1Cc1ccccn1` [CA414] are -4.22% and -9%.
Take `O=C(O)CCn1nc(C(F)(F)F)cc1C1CC1` [CA415]: the inhibition at 1.25 µM under setting [1] is -5.69% and the inhibition at 1.25 µM under setting [2] is -4.3%.
With `Cc1csc(-c2cccc(C(=O)O)c2)n1` [CA416], the inhibition at 1.25 µM by setting is: under setting [1], -3.85%; under setting [2], -4.32%.
As to `O=C(O)c1cc(COc2ccc(F)cc2F)on1` [CA417], the inhibition at 1.25 µM is, setting by setting: under setting [1], -8.45%; under setting [2], -7.97%.
As for `CC(=O)N1CCN(S(=O)(=O)c2cccc(C(=O)O)c2)CC1` [CA418], the inhibition at 1.25 µM under setting [1] is -5% and the inhibition at 1.25 µM under setting [2] is -2.55%.
In the case of `Cn1cc(-c2cc(C(=O)O)n[nH]2)cn1` [CA419], the inhibition at 1.25 µM runs as follows: under setting [1], -7.23%; under setting [2], -1.62%.
Regarding `Cc1cc(C)n(-c2ccc(Cl)c(C(=O)O)n2)n1` [CA420], the inhibition at 1.25 µM reads like this: under setting [1], -5.16%; under setting [2], -0.88%.
For `O=C(O)Cc1csc(NS(=O)(=O)c2ccccc2)n1` [CA421], the inhibition at 1.25 µM was -4.79% under setting [1] and -0.58% under setting [2].
Regarding `O=C(O)c1cccc(S(=O)(=O)N2CCOCC2)c1` [CA422], the inhibition at 1.25 µM is, setting by setting: under setting [1], -10.9%; under setting [2], -0.86%.
Turning to `O=C(O)Cc1coc(-c2cccs2)n1` [CA423], the inhibition at 1.25 µM reads like this: under setting [1], 8.99%; under setting [2], -4.85%.
In the case of `COc1ccc(S(=O)(=O)N(CCC(=O)O)Cc2ccccc2)cc1` [CA424], the inhibition at 1.25 µM was 3.84% under setting [1] and -12.6% under setting [2].
Turning to `Cc1oc(-c2ccsc2)nc1CC(=O)O` [CA425], the inhibition at 1.25 µM by setting is: under setting [1], 2.13%; under setting [2], -7.19%.
